Assay type in all cases: cell-based, human
For test [1], the system named is NCI-H322 lung cancer cells. The test is described as follows: NK cell CD107a / IFNγ flow cytometry against NCI-H322. As to conditions: normal donor PBMCs, vs controls. The text has this:
FIGS. 24A-24F illustrate that B7-H3 TriKE enhances NK cell function against lung tumor targets. FIG. 24A is a graph showing pooled analysis of proportion of NK cells from healthy donors expressing CD107a+ against A549(N=6) tumor targets. FIG. 24B is a graph showing pooled analysis of proportion of NK cells from healthy donors expressing IFNγ against A549(N=6) tumor targets. FIG. 24C is a graph showing pooled analysis of proportion of NK cells from healthy donors expressing CD107a+ against NCI-H322 (N=5) tumor targets. FIG. 24D is a graph showing pooled analysis of proportion of NK cells from healthy donors expressing IFNγ against NCI-H322 (N=5) tumor targets. FIG. 24E is a graph showing pooled proportion of NK cells from healthy donors (black bars) or lung cancer patients (white bars) expressing CD107a+ against NCI-H460 (N=7). FIG. 24F is a graph showing pooled proportion of NK cells from healthy donors (black bars) or lung cancer patients (white bars) expressing IFNγ against NCI-H460 (N=7). ** p<0.01, *** p<0.001, and **** p<0.0001.
ADCC was measured in a flow cytometry assay by evaluating degranulation via CD107a (lysosomal-associated membrane protein LAMP-1) and intracellular IFNγ production. […] Samples were washed and evaluated in an LSRII flow cytometer (BD Biosciences, San Jose, CA, USA). […]
For orientation: Flow cytometry measures light scatter and fluorescence of single cells or particles in a stream.

Test [2] relates to LNCaP prostate cancer cells. The test is described as follows: NK cell CD107a / IFNγ flow cytometry against LNCaP. The following applies: normal donor and prostate cancer patient NK cells, vs controls. The text has this:
FIG. 15A is a graph showing pooled analysis of proportion of NK cells from healthy donors or prostate cancer patients expressing CD107a+ (top) or IFNγ (bottom) against C4-2 targets (N=9 for healthy donors, N=3 for patients). FIG. 15B is a graph showing pooled analysis of proportion of NK cells from healthy donors or prostate cancer patients expressing CD107a+ (top) or IFNγ (bottom) against DU145 targets (N=9 for healthy donors, N=3 for patients). FIG. 15C is a graph showing pooled analysis of proportion of NK cells from healthy donors or prostate cancer patients expressing CD107a+ (top) or IFNγ (bottom) against LNCaP targets (N=9 for healthy donors, N=3 for patients). FIG. 15D is a graph showing pooled analysis of proportion of NK cells from healthy donors or prostate cancer patients expressing CD107a+ (top) or IFNγ (bottom) against PC3 targets (N=9 for healthy donors, N=3 for patients). * p<0.05, ** p<0.01, *** p<0.001, and **** p<0.0001.
ADCC was measured in a flow cytometry assay by evaluating degranulation via CD107a (lysosomal-associated membrane protein LAMP-1) and intracellular IFNγ production. Upon thawing, normal donor and patient-derived PBMCs or ascites cells were rested overnight (37° C., 5% CO2) in RPMI 1640 media supplemented with 10% fetal calf serum (RPMI-10). […] Samples were washed and evaluated in an LSRII flow cytometer (BD Biosciences, San Jose, CA, USA). […]

Test [3] deals with H929 myeloma cells with MDSC. The test is described as follows: Myeloma cytotoxicity assay with added MDSC, live cell imaging. The following applies: B7-H3 TriKE and NK cells, 48 hours live cell imaging. The method, then: FIGS. 10A-10D illustrate the effect B7-H3-TriKE on MDSC developed from CD33+ myeloid cells from healthy donors, when incubated with myeloma cells at 1:100 ratio. FIG. 10A is a graph showing MDSC (CD14+CD11b+) expression of B7-H3. FIG. 10B is a graph showing cell survival as measured by flow cytometry. FIG. 10C is a plot of live, CD14+ cells FIG. 10D is a graph illustrating H929 growth as measured over 48 hours by live cell imaging.
MDSC were developed from CD33+ myeloid cells from healthy donors using IL-6 and GM-CSF or by incubating them with myeloma cells at 1:100 ratio for seven days.

The values below come from patent US20250145715A1, “B7-H3 TARGETING FUSION PROTEINS AND METHODS OF USE THEREOF” (GT Biopharma, Inc., priority 2021, published 2025).

Turning to “cam1615B7-H3: second-generation TriKE: humanized camelid anti-CD16 VHH, human wild-type IL-15, anti-B7-H3 mAb 376.96 scFv; SEQ ID NO:1”, the “NK cell activation against NCI-H322” value in test [1] is “significantly and robustly improved NK cell activation”. Also, in test [2], the “NK cell IFNγ production against LNCaP” value is “enhanced” and the “NK cell degranulation (CD107a) against LNCaP” value is listed as “enhanced”.

Regarding “B7-H3 TriKE: camelid nanobodies targeting CD16 and B7-H3 joined by IL-15 and two linkers; sequence table equates the name with cam1615B7-H3”, the “MDSC-enhanced myeloma cell growth” value in test [3] is “overcome”.
